Assay results as given in ChEMBL document CHEMBL1201861, “Genomics of Drug Sensitity in Cancer screening data, Wellcome Trust Sanger Institute”.

Experiments:
Assay in all cases: cells
[1] = tested on: D-392MG; format: functional, cell-based, Homo sapiens; conditions: Homo sapiens, D-392MG
[2] = tested on: OE33; format: functional, cell-based, Homo sapiens; conditions: Homo sapiens, OE33;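 also: growth inhibition of human OE33 cells, measured by a cell viability assay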
Description: SANGER: Inhibition of human OE33 cell growth in a cell viability assay.

[3] = tested on: NCI-H1993; format: functional, cell-based, Homo sapiens; conditions: Homo sapiens, NCI-H1993;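 also: growth inhibition of the cancer cell line, assessed with a cell viability assay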
Description: SANGER: Inhibition of human NCI-H1993 cell growth in a cell viability assay.

[4] = tested on: KYSE-140; format: functional, cell-based, Homo sapiens; conditions: Homo sapiens, KYSE-140;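 also: cell viability assay measuring growth inhibition in human KYSE-140 cells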
Description: SANGER: Inhibition of human KYSE-140 cell growth in a cell viability assay.

[5] = tested on: KP-4; format: functional, cell-based, Homo sapiens; conditions: Homo sapiens, KP-4; read-out: IC50;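 also: human KP-4 cells, with growth inhibition read out through a cell viability assay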
Description: SANGER: Inhibition of human KP-4 cell growth in a cell viability assay.

[6] = tested on: EKVX; format: functional, cell-based, Homo sapiens; conditions: Homo sapiens, EKVX;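 also: growth inhibition of human EKVX cells, read out with a cell viability assay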
Description: SANGER: Inhibition of human EKVX cell growth in a cell viability assay.

[7] = tested on: CW-2; format: functional, cell-based, Homo sapiens; conditions: Homo sapiens, CW-2;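 also: growth inhibition of CW-2 cells, read out by a cell viability assay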
Description: SANGER: Inhibition of human CW-2 cell growth in a cell viability assay.

[8] = tested on: NKM-1; format: functional, cell-based; conditions: Homo sapiens;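 also: growth inhibition of NKM-1 cells, read out with a cell viability assay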
Description: SANGER: Inhibition of human NKM-1 cell growth in a cell viability assay.

[9] = tested on: LS-411N; format: functional, cell-based, Homo sapiens; conditions: Homo sapiens, LS-411N
[10] = tested on: RCC10RGB; format: functional, cell-based, Homo sapiens; conditions: Homo sapiens, RCC10RGB;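 also: growth inhibition of human RCC10RGB cells, read out by a cell viability assay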
Description: SANGER: Inhibition of human RCC10RGB cell growth in a cell viability assay.

[11] = tested on: C32; format: functional, cell-based, Homo sapiens; conditions: Homo sapiens, C32;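 also: cell viability assay, with IC50 reflecting inhibition of C32 cell growth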
Description: SANGER: Inhibition of human C32 cell growth in a cell viability assay.

[12] = tested on: IST-MES1; format: functional, cell-based, Homo sapiens; conditions: Homo sapiens, IST-MES1;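 also: growth inhibition of IST-MES1 cells, measured with a cell viability assay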
Description: SANGER: Inhibition of human IST-MES1 cell growth in a cell viability assay.

[13] = tested on: DBTRG-05MG; format: functional, cell-based, Homo sapiens; conditions: Homo sapiens, DBTRG-05MG;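 also: cell viability assay measuring growth inhibition of human DBTRG-05MG cells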
Description: SANGER: Inhibition of human DBTRG-05MG cell growth in a cell viability assay.

[14] = tested on: L-428; format: functional, cell-based; conditions: Homo sapiens
Description: SANGER: Inhibition of human L-428 cell growth in a cell viability assay.

[15] = tested on: SW13; format: functional, cell-based, Homo sapiens; conditions: Homo sapiens, SW13;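 also: IC50 is inhibition of SW13 cell growth, read out with a cell viability assay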
Description: SANGER: Inhibition of human SW13 cell growth in a cell viability assay.

[16] = tested on: LB996-RCC; format: functional, cell-based; conditions: Homo sapiens
Description: SANGER: Inhibition of human LB996-RCC cell growth in a cell viability assay.

[17] = tested on: BFTC-909; format: functional, cell-based, Homo sapiens; conditions: Homo sapiens, BFTC-909
Description: SANGER: Inhibition of human BFTC-909 cell growth in a cell viability assay.

[18] = tested on: SW1088; format: functional, cell-based, Homo sapiens; conditions: Homo sapiens, SW1088;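 also: growth inhibition of human SW1088 cells, read out by a cell viability assay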
Description: SANGER: Inhibition of human SW1088 cell growth in a cell viability assay.

[19] = tested on: HGC-27; format: functional, cell-based, Homo sapiens; conditions: Homo sapiens, HGC-27;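 also: growth inhibition of human HGC-27 cells, read out in a cell viability assay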
Description: SANGER: Inhibition of human HGC-27 cell growth in a cell viability assay.

[20] = tested on: ESS-1; format: functional, cell-based, Homo sapiens; conditions: Homo sapiens, ESS-1;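 also: growth inhibition of human ESS-1 cells, read out by a cell viability assay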
Description: SANGER: Inhibition of human ESS-1 cell growth in a cell viability assay.

[21] = tested on: DMS-114; format: functional, cell-based, Homo sapiens; conditions: Homo sapiens, DMS-114
[22] = tested on: EFM-19; format: functional, cell-based, Homo sapiens; conditions: Homo sapiens, EFM-19;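 also: growth inhibition of human EFM-19 cells, measured in a cell viability assay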
Description: SANGER: Inhibition of human EFM-19 cell growth in a cell viability assay.

[23] = tested on: MFH-ino; format: functional, cell-based; conditions: Homo sapiens;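 also: growth inhibition of human MFH-ino cells, read out by a cell viability assay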
Description: SANGER: Inhibition of human MFH-ino cell growth in a cell viability assay.

[24] = tested on: KM-H2; format: functional, cell-based; conditions: Homo sapiens;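 also: growth inhibition of KM-H2 cells, read out by a cell viability assay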
Description: SANGER: Inhibition of human KM-H2 cell growth in a cell viability assay.

[25] = tested on: SNB-75; format: functional, cell-based, Homo sapiens; conditions: Homo sapiens, SNB-75;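 also: cell viability assay measuring growth inhibition of human SNB-75 cells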
Description: SANGER: Inhibition of human SNB75 cell growth in a cell viability assay.

[26] = tested on: NCI-H446; format: functional, cell-based; conditions: Homo sapiens;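 also: growth inhibition of NCI-H446 cells determined by a cell viability assay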
Description: SANGER: Inhibition of human NCI-H446 cell growth in a cell viability assay.

[27] = tested on: Daoy; format: functional, cell-based, Homo sapiens; conditions: Homo sapiens, Daoy;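 also: daoy cell growth inhibition, read out as cell viability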
Description: SANGER: Inhibition of human Daoy cell growth in a cell viability assay.

[28] = tested on: HLE; format: functional, cell-based, Homo sapiens; conditions: Homo sapiens, HLE;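 also: growth inhibition of human HLE cells, read out by a cell viability assay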
Description: SANGER: Inhibition of human HLE cell growth in a cell viability assay.

[29] = tested on: MDA-MB-361; format: functional, cell-based, Homo sapiens; conditions: Homo sapiens, MDA-MB-361
[30] = tested on: LB373-MEL-D; format: functional, cell-based, Homo sapiens; conditions: Homo sapiens, LB373-MEL-D;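 also: growth inhibition of the cell line, read out in a cell viability assay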
Description: SANGER: Inhibition of human LB373-MEL-D cell growth in a cell viability assay.

[31] = tested on: NUGC-3; format: functional, cell-based, Homo sapiens; conditions: Homo sapiens, NUGC-3;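 also: growth inhibition of human NUGC-3 cells, read out with a cell viability assay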
Description: SANGER: Inhibition of human NUGC-3 cell growth in a cell viability assay.

[32] = tested on: KG-1; format: functional, cell-based; conditions: Homo sapiens;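 also: growth inhibition of KG-1 cells, read out by a cell viability assay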
Description: SANGER: Inhibition of human KG-1 cell growth in a cell viability assay.

[33] = tested on: RD; format: functional, cell-based, Homo sapiens; conditions: Homo sapiens, RD
Description: SANGER: Inhibition of human RD cell growth in a cell viability assay.

[34] = tested on: NCI-H2405; format: functional, cell-based, Homo sapiens; conditions: Homo sapiens, NCI-H2405;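 also: growth inhibition of the human cell line, read out with a cell viability assay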
Description: SANGER: Inhibition of human NCI-H2405 cell growth in a cell viability assay.

[35] = tested on: Mo; format: functional, cell-based; conditions: Homo sapiens
Description: SANGER: Inhibition of human Mo-T cell growth in a cell viability assay.

[36] = tested on: ATN-1; format: functional, cell-based; conditions: Homo sapiens;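 also: growth inhibition of human ATN-1 cells, read out with a cell viability assay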
Description: SANGER: Inhibition of human ATN-1 cell growth in a cell viability assay.

[37] = tested on: MMAC-SF; format: functional, cell-based, Homo sapiens; conditions: Homo sapiens, MMAC-SF;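 also: growth inhibition of human MMAC-SF cells, read out with a cell viability assay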
Description: SANGER: Inhibition of human MMAC-SF cell growth in a cell viability assay.

[38] = tested on: NCI-H1304; format: functional, cell-based; conditions: Homo sapiens;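 also: growth inhibition of the cancer cell line, measured in a cell viability assay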
Description: SANGER: Inhibition of human NCI-H1304 cell growth in a cell viability assay.

[39] = tested on: HCC1937; format: functional, cell-based, Homo sapiens; conditions: Homo sapiens, HCC1937;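 also: growth inhibition measured with a cell viability read-out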
Description: SANGER: Inhibition of human HCC1937 cell growth in a cell viability assay.

[40] = tested on: HT-1080; format: functional, cell-based, Homo sapiens; conditions: Homo sapiens, HT-1080
Description: SANGER: Inhibition of human HT-1080 cell growth in a cell viability assay.

[41] = tested on: RERF-LC-MS; format: functional, cell-based, Homo sapiens; conditions: Homo sapiens, RERF-LC-MS;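 also: growth inhibition of human RERF-LC-MS cells, read out by a cell viability assay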
Description: SANGER: Inhibition of human RERF-LC-MS cell growth in a cell viability assay.

[42] = tested on: DK-MG; format: functional, cell-based, Homo sapiens; conditions: Homo sapiens, DK-MG;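 also: growth inhibition of DK-MG cells, read out with a cell viability assay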
Description: SANGER: Inhibition of human DK-MG cell growth in a cell viability assay.

[43] = tested on: K5; format: functional, cell-based, Homo sapiens; conditions: Homo sapiens, K5
Description: SANGER: Inhibition of human K5 cell growth in a cell viability assay.

[44] = tested on: JEG-3; format: functional, cell-based, Homo sapiens; conditions: Homo sapiens, JEG-3;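 also: growth inhibition of human JEG-3 cells, read out with a cell viability assay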
Description: SANGER: Inhibition of human JEG-3 cell growth in a cell viability assay.

[45] = tested on: RCM-1; format: functional, cell-based, Homo sapiens; conditions: Homo sapiens, RCM-1;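 also: growth inhibition of the RCM-1 line, determined with a cell viability readout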
Description: SANGER: Inhibition of human RCM-1 cell growth in a cell viability assay.

[46] = tested on: SW48; format: functional, cell-based, Homo sapiens; conditions: Homo sapiens, SW48;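 also: growth inhibition of SW48 cells, read out with a cell viability assay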
Description: SANGER: Inhibition of human SW48 cell growth in a cell viability assay.

[47] = tested on: MEL-HO; format: functional, cell-based, Homo sapiens; conditions: Homo sapiens, MEL-HO
Description: SANGER: Inhibition of human MEL-HO cell growth in a cell viability assay.

[48] = tested on: IA-LM; format: functional, cell-based, Homo sapiens; conditions: Homo sapiens, IA-LM;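 also: cell viability assay measuring growth inhibition of human IA-LM cells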
Description: SANGER: Inhibition of human IA-LM cell growth in a cell viability assay.

[49] = tested on: MKN-45; format: functional, cell-based, Homo sapiens; conditions: Homo sapiens, MKN-45;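 also: growth inhibition of human MKN-45 cells, measured with a cell viability assay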
Description: SANGER: Inhibition of human MKN45 cell growth in a cell viability assay.

[50] = tested on: EGI-1; format: functional, cell-based, Homo sapiens; conditions: Homo sapiens, EGI-1;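 also: cell viability readout used to gauge growth inhibition of EGI-1 cells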
Description: SANGER: Inhibition of human EGI-1 cell growth in a cell viability assay.

[51] = tested on: LB2241-RCC; format: functional, cell-based, Homo sapiens; conditions: Homo sapiens, LB2241-RCC;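 also: cell viability assay measuring how strongly the cultured human renal carcinoma line is prevented from growing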
Description: SANGER: Inhibition of human LB2241-RCC cell growth in a cell viability assay.

C=CCNC1=C2C[C@@H](C)C[C@H](OC)[C@H](O)[C@@H](C)/C=C(\C)[C@H](OC(N)=O)[C@@H](OC)/C=C\C=C(/C)C(=O)NC(=CC1=O)C2=O [TANESPIMYCIN]
IC50 [1]: 0.894 µM | IC50 [2]: 0.851 µM | IC50 [3]: > 1 µM | IC50 [4]: > 1 µM | IC50 [5]: 0.0475 µM | IC50 [6]: > 1 µM | IC50 [7]: > 1 µM | IC50 [8]: 0.107 µM | IC50 [9]: 0.465 µM | IC50 [10]: > 1 µM | IC50 [11]: 0.00304 µM | IC50 [12]: > 1 µM | IC50 [13]: 0.581 µM | IC50 [14]: > 1 µM | IC50 [15]: > 1 µM | IC50 [16]: 0.336 µM | IC50 [17]: 0.0797 µM | IC50 [18]: 0.164 µM | IC50 [19]: 0.0051 µM | IC50 [20]: 0.248 µM | IC50 [21]: > 1 µM | IC50 [22]: 0.737 µM | IC50 [23]: > 1 µM | IC50 [24]: > 1 µM | IC50 [25]: 0.122 µM | IC50 [26]: > 1 µM | IC50 [27]: 0.317 µM | IC50 [28]: > 1 µM | IC50 [29]: 0.015 µM | IC50 [30]: > 1 µM | IC50 [31]: 0.145 µM | IC50 [32]: > 1 µM | IC50 [33]: 0.191 µM | IC50 [34]: 0.346 µM | IC50 [35]: > 1 µM | IC50 [36]: > 1 µM | IC50 [37]: 0.105 µM | IC50 [38]: > 1 µM | IC50 [39]: 0.163 µM | IC50 [40]: 0.0844 µM | IC50 [41]: 0.746 µM | IC50 [42]: 0.372 µM | IC50 [43]: 0.244 µM | IC50 [44]: 0.187 µM | IC50 [45]: > 1 µM | IC50 [46]: 0.0504 µM | IC50 [47]: 0.0726 µM | IC50 [48]: > 1 µM | IC50 [49]: 0.0822 µM | IC50 [50]: > 1 µM | IC50 [51]: 0.101 µM

Cn1cncc1[C@@](N)(c1ccc(Cl)cc1)c1ccc2c(c1)c(-c1cccc(Cl)c1)cc(=O)n2C [TIPIFARNIB]
IC50 [1]: > 16 µM | IC50 [2]: 12.6 µM | IC50 [3]: > 16 µM | IC50 [4]: 1.11 µM | IC50 [5]: 13.6 µM | IC50 [6]: > 16 µM | IC50 [7]: > 16 µM | IC50 [8]: 0.774 µM | IC50 [9]: 1.1 µM | IC50 [10]: 8.49 µM | IC50 [11]: > 16 µM | IC50 [12]: 14.6 µM | IC50 [13]: 14.4 µM | IC50 [14]: > 16 µM | IC50 [15]: 3.6 µM | IC50 [16]: 7.69 µM | IC50 [17]: 8.37 µM | IC50 [18]: 8.57 µM | IC50 [19]: 1.32 µM | IC50 [20]: > 16 µM | IC50 [21]: > 16 µM | IC50 [22]: 1.75 µM | IC50 [23]: 0.815 µM | IC50 [24]: > 16 µM | IC50 [25]: 9.02 µM | IC50 [26]: > 16 µM | IC50 [27]: 0.0575 µM | IC50 [28]: 0.448 µM | IC50 [29]: 2.11 µM | IC50 [30]: 8.85 µM | IC50 [31]: 4.19 µM | IC50 [32]: 3.06 µM | IC50 [33]: 12 µM | IC50 [34]: 9.6 µM | IC50 [35]: > 16 µM | IC50 [36]: 2.54 µM | IC50 [37]: 13.7 µM | IC50 [38]: > 16 µM | IC50 [39]: 9.02 µM | IC50 [40]: 10.3 µM | IC50 [41]: > 16 µM | IC50 [42]: > 16 µM | IC50 [43]: > 16 µM | IC50 [44]: 8.61 µM | IC50 [45]: > 16 µM | IC50 [46]: 8.61 µM | IC50 [47]: 2.24 µM | IC50 [48]: 0.0475 µM | IC50 [49]: 2.79 µM | IC50 [50]: 11.6 µM | IC50 [51]: 6.16 µM

CCC1=C[C@@H]2CN(C1)Cc1c([nH]c3ccccc13)[C@@](C(=O)OC)(c1cc3c(cc1OC)N(C)[C@H]1[C@@](O)(C(=O)OC)[C@H](OC(C)=O)[C@]4(CC)C=CCN5CC[C@]31[C@@H]54)C2 [VINORELBINE]
IC50 [1]: > 0.064 µM | IC50 [2]: 0.0204 µM | IC50 [3]: > 0.064 µM | IC50 [4]: 0.0238 µM | IC50 [5]: 0.00271 µM | IC50 [6]: > 0.064 µM | IC50 [7]: > 0.064 µM | IC50 [8]: 0.00497 µM | IC50 [9]: 0.00317 µM | IC50 [10]: > 0.064 µM | IC50 [11]: > 0.064 µM | IC50 [12]: > 0.064 µM | IC50 [13]: 0.00388 µM | IC50 [14]: > 0.064 µM | IC50 [15]: 0.00472 µM | IC50 [16]: > 0.064 µM | IC50 [17]: 0.0108 µM | IC50 [18]: > 0.064 µM | IC50 [19]: 0.00185 µM | IC50 [20]: 0.00914 µM | IC50 [21]: > 0.064 µM | IC50 [22]: 0.00604 µM | IC50 [23]: 0.0056 µM | IC50 [24]: 0.00911 µM | IC50 [25]: 0.0125 µM | IC50 [26]: 0.0148 µM | IC50 [27]: 0.00665 µM | IC50 [28]: 0.0102 µM | IC50 [29]: 0.00976 µM | IC50 [30]: 0.0468 µM | IC50 [31]: 0.00599 µM | IC50 [32]: > 0.064 µM | IC50 [33]: 0.00542 µM | IC50 [34]: 0.0507 µM | IC50 [35]: > 0.064 µM | IC50 [36]: 0.00194 µM | IC50 [37]: 0.0205 µM | IC50 [38]: 0.0352 µM | IC50 [39]: > 0.064 µM | IC50 [40]: 0.00249 µM | IC50 [41]: 0.0102 µM | IC50 [42]: > 0.064 µM | IC50 [43]: 0.0419 µM | IC50 [44]: 0.0141 µM | IC50 [45]: > 0.064 µM | IC50 [46]: 0.0058 µM | IC50 [47]: 0.00329 µM | IC50 [48]: 0.00371 µM | IC50 [49]: 0.00229 µM | IC50 [50]: > 0.064 µM | IC50 [51]: > 0.064 µM
